Values quoted from earlier work as cited in patent publication US20090317487A1, “KITS FOR PREVENTION AND TREATMENT OF RHINITIS” (priority 2006, published 2009).

System: infectious rhinitis (common cold)
Conditions: patients; literature studies (Mossad 1996, Prasad 2000, Farr 1987)

Row | SMILES | effect on severity and/or duration of infectious rhinitis (common cold)
1 | [Zn] [zinc] | significant effect on the severity and duration of infectious rhinitis
2 | CC(=O)[O-].CC(=O)[O-].[Zn+2] [zinc acetate] | reduced duration of infection
